In ChEMBL document CHEMBL1201862, “PubChem BioAssay data set” (2004):
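Each compound was tested at five concentrations against cells in 96-well plates for 48 hours. Abbreviation: GI50, concentration required for 50% inhibition of growth.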 The source made the active and inactive calls. No stated cut-off is given here; in the data, active = GI50 up to about 1.1 µM and inactive = higher.

What was measured:
Assay in all cases: DTP human tumour cell line panel, 48 h
786-0 = system: 786-0
A549 = system: A549
ACHN = system: ACHN
BT-549 = system: BT-549
CAKI-1 = system: CAKI-1
CCRF-CEM = system: CCRF-CEM
COLO 205 = system: COLO 205
DU-145 = system: DU-145
EKVX = system: EKVX
HCC 2998 = system: HCC 2998
HCT-116 = system: HCT-116
HCT-15 = system: HCT-15
HL-60 = system: HL-60
HOP-62 = system: HOP-62
HT-29 = system: HT-29
Hs-578T = system: Hs-578T
IGROV-1 = system: IGROV-1
K562 = system: K562
LOX IMVI = system: LOX IMVI
M14 = system: M14
MCF7 = system: MCF7
MDA-MB-231 = system: MDA-MB-231
MDA-MB-435 = system: MDA-MB-435
MDA-N = system: MDA-N
MOLT-4 = system: MOLT-4
Malme-3M = system: Malme-3M
NCI-H226 = system: NCI-H226
NCI-H23 = system: NCI-H23
NCI-H460 = system: NCI-H460
NCI-H522 = system: NCI-H522
NCI/ADR-RES = system: NCI/ADR-RES
OVCAR-3 = system: OVCAR-3
OVCAR-4 = system: OVCAR-4
OVCAR-5 = system: OVCAR-5
OVCAR-8 = system: OVCAR-8
PC-3 = system: PC-3
RPMI-8226 = system: RPMI-8226
RXF 393 = system: RXF 393
SF-268 = system: SF-268
SF-295 = system: SF-295
SF-539 = system: SF-539
SK-MEL-28 = system: SK-MEL-28
SK-MEL-2 = system: SK-MEL-2
SK-MEL-5 = system: SK-MEL-5
SK-OV-3 = system: SK-OV-3
SN12C = system: SN12C
SNB-19 = system: SNB-19
SNB-75 = system: SNB-75
SR = system: SR
SW-620 = system: SW-620
T47D = system: T47D
TK-10 = system: TK-10
UACC-257 = system: UACC-257
UO-31 = system: UO-31
HOP-92 = system: HOP-92
KM12 = system: KM12
U-251 = system: U-251
UACC-62 = system: UACC-62

SMILES: CC(=O)N1C(c2[nH]c3ccccc3c2Cc2ccccc2)CCN1c1ccccc1 (configuration not stated)
- GI50 (786-0): > 10 µM (inactive)
- GI50 (A549): 4.88 µM (inactive)
- GI50 (ACHN): 3.04 µM (inactive)
- GI50 (BT-549): > 10 µM (inactive)
- GI50 (CAKI-1): 8.47 µM (inactive)
- GI50 (CCRF-CEM): 3.66 µM (inactive)
- GI50 (COLO 205): 8.81 µM (inactive)
- GI50 (DU-145): > 10 µM (inactive)
- GI50 (EKVX): > 10 µM (inactive)
- GI50 (HCC 2998): 5.97 µM (inactive)
- GI50 (HCT-116): 4.72 µM (inactive)
- GI50 (HCT-15): > 10 µM
- GI50 (HL-60): 5.42 µM (inactive)
- GI50 (HOP-62): > 10 µM (inactive)
- GI50 (HT-29): > 10 µM (inactive)
- GI50 (Hs-578T): 9.31 µM (inactive)
- GI50 (IGROV-1): > 10 µM (inactive)
- GI50 (K562): 3.05 µM (inactive)
- GI50 (LOX IMVI): > 10 µM (inactive)
- GI50 (M14): 7.93 µM (inactive)
- GI50 (MCF7): 8.45 µM (inactive)
- GI50 (MDA-MB-231): > 10 µM (inactive)
- GI50 (MDA-MB-435): 9.06 µM (inactive)
- GI50 (MDA-N): 7.29 µM (inactive)
- GI50 (MOLT-4): 4.4 µM (inactive)
- GI50 (Malme-3M): > 10 µM (inactive)
- GI50 (NCI-H226): > 10 µM (inactive)
- GI50 (NCI-H23): 8.59 µM (inactive)
- GI50 (NCI-H460): 5.22 µM (inactive)
- GI50 (NCI-H522): 8.47 µM (inactive)
- GI50 (NCI/ADR-RES): 9.02 µM (inactive)
- GI50 (OVCAR-3): > 10 µM (inactive)
- GI50 (OVCAR-4): > 10 µM (inactive)
- GI50 (OVCAR-5): > 10 µM (inactive)
- GI50 (OVCAR-8): > 10 µM (inactive)
- GI50 (PC-3): 3.24 µM (inactive)
- GI50 (RPMI-8226): 6.49 µM (inactive)
- GI50 (RXF 393): 4.16 µM (inactive)
- GI50 (SF-268): 4.72 µM (inactive)
- GI50 (SF-295): 4.35 µM (inactive)
- GI50 (SF-539): > 10 µM (inactive)
- GI50 (SK-MEL-28): > 10 µM (inactive)
- GI50 (SK-MEL-2): > 10 µM (inactive)
- GI50 (SK-MEL-5): > 10 µM (inactive)
- GI50 (SK-OV-3): > 10 µM (inactive)
- GI50 (SN12C): > 10 µM (inactive)
- GI50 (SNB-19): > 10 µM (inactive)
- GI50 (SNB-75): 5.83 µM (inactive)
- GI50 (SR): 4.81 µM (inactive)
- GI50 (SW-620): > 10 µM (inactive)
- GI50 (T47D): 6.41 µM (inactive)
- GI50 (TK-10): > 10 µM (inactive)
- GI50 (UACC-257): > 10 µM (inactive)
- GI50 (UO-31): 8.73 µM (inactive)

SMILES: CC#C[C@]1(O)CCC2[C@@H]3CCC4=CC(=O)CCC4=C3[C@@H](c3ccc(N(C)C)cc3)C[C@@]21C (some centres not stated)
- GI50 (786-0): 15.2 µM (inactive)
- GI50 (A549): 10.2 µM (inactive)
- GI50 (ACHN): 18.7 µM (inactive)
- GI50 (BT-549): 16.6 µM (inactive)
- GI50 (CAKI-1): 5.73 µM (inactive)
- GI50 (CCRF-CEM): 9.75 µM (inactive)
- GI50 (COLO 205): 11.5 µM (inactive)
- GI50 (DU-145): 22.1 µM (inactive)
- GI50 (EKVX): 13.2 µM (inactive)
- GI50 (HCT-116): 15 µM (inactive)
- GI50 (HCT-15): 12.3 µM
- GI50 (HL-60): 16 µM (inactive)
- GI50 (HOP-62): 20 µM (inactive)
- GI50 (HOP-92): 1.43 µM (inactive)
- GI50 (HT-29): 12.9 µM (inactive)
- GI50 (Hs-578T): 13 µM (inactive)
- GI50 (K562): 20.9 µM (inactive)
- GI50 (KM12): 15.7 µM (inactive)
- GI50 (LOX IMVI): 16 µM (inactive)
- GI50 (M14): 13.8 µM (inactive)
- GI50 (MCF7): 5.27 µM (inactive)
- GI50 (MDA-MB-231): 8.79 µM (inactive)
- GI50 (MDA-MB-435): 12.2 µM (inactive)
- GI50 (MDA-N): 11.8 µM (inactive)
- GI50 (Malme-3M): 14.6 µM (inactive)
- GI50 (NCI-H23): 21.4 µM (inactive)
- GI50 (NCI-H460): 9.86 µM (inactive)
- GI50 (NCI/ADR-RES): 11.5 µM (inactive)
- GI50 (OVCAR-3): 8.28 µM (inactive)
- GI50 (OVCAR-4): 6.37 µM (inactive)
- GI50 (OVCAR-5): 22.7 µM (inactive)
- GI50 (OVCAR-8): 26.5 µM (inactive)
- GI50 (PC-3): 21.7 µM (inactive)
- GI50 (RPMI-8226): 2.02 µM (inactive)
- GI50 (SF-268): 6.85 µM (inactive)
- GI50 (SF-295): 10.7 µM (inactive)
- GI50 (SF-539): 12.6 µM (inactive)
- GI50 (SK-MEL-28): 14.4 µM (inactive)
- GI50 (SK-MEL-5): 10.9 µM (inactive)
- GI50 (SK-OV-3): 18.3 µM (inactive)
- GI50 (SN12C): 21.8 µM (inactive)
- GI50 (SNB-19): 35 µM (inactive)
- GI50 (SR): 14.1 µM (inactive)
- GI50 (SW-620): 13.3 µM (inactive)
- GI50 (T47D): 6.84 µM (inactive)
- GI50 (TK-10): 11.9 µM (inactive)
- GI50 (U-251): 12.5 µM (inactive)
- GI50 (UACC-257): 13.2 µM (inactive)
- GI50 (UACC-62): 3.36 µM (inactive)
- GI50 (UO-31): 8.2 µM (inactive)

SMILES: Cc1cc(C)c2c(=O)n(CC(O)CN(Cc3ccccc3)CC(O)Cn3sc4nc(C)cc(C)c4c3=O)sc2n1 (configuration not stated)
- GI50 (786-0): 14.6 µM (inactive)
- GI50 (A549): 19.9 µM (inactive)
- GI50 (ACHN): 16.5 µM (inactive)
- GI50 (BT-549): 23.7 µM (inactive)
- GI50 (CAKI-1): 18.8 µM (inactive)
- GI50 (CCRF-CEM): 6.05 µM (inactive)
- GI50 (COLO 205): 7.73 µM (inactive)
- GI50 (DU-145): 17.9 µM (inactive)
- GI50 (EKVX): 22.2 µM (inactive)
- GI50 (HCC 2998): 18.8 µM (inactive)
- GI50 (HCT-116): 17.3 µM (inactive)
- GI50 (HCT-15): 17.3 µM
- GI50 (HL-60): 33.2 µM (inactive)
- GI50 (HOP-62): 14.4 µM (inactive)
- GI50 (HOP-92): 17.2 µM (inactive)
- GI50 (HT-29): 19.6 µM (inactive)
- GI50 (Hs-578T): 18.9 µM (inactive)
- GI50 (IGROV-1): 17.7 µM (inactive)
- GI50 (K562): 24.2 µM (inactive)
- GI50 (KM12): 17.2 µM (inactive)
- GI50 (LOX IMVI): 19.2 µM (inactive)
- GI50 (M14): 17.4 µM (inactive)
- GI50 (MCF7): 17.6 µM (inactive)
- GI50 (MDA-MB-231): 17.7 µM (inactive)
- GI50 (MDA-MB-435): 17 µM (inactive)
- GI50 (MDA-N): 17.9 µM (inactive)
- GI50 (MOLT-4): 3.25 µM (inactive)
- GI50 (Malme-3M): 14.3 µM (inactive)
- GI50 (NCI-H226): 18.5 µM (inactive)
- GI50 (NCI-H23): 18 µM (inactive)
- GI50 (NCI-H460): 19.7 µM (inactive)
- GI50 (NCI-H522): 10 µM (inactive)
- GI50 (NCI/ADR-RES): 22.4 µM (inactive)
- GI50 (OVCAR-3): 16.2 µM (inactive)
- GI50 (OVCAR-4): 18.1 µM (inactive)
- GI50 (OVCAR-5): 20.1 µM (inactive)
- GI50 (OVCAR-8): 18.9 µM (inactive)
- GI50 (PC-3): 16.8 µM (inactive)
- GI50 (RPMI-8226): 3.61 µM (inactive)
- GI50 (RXF 393): 18.8 µM (inactive)
- GI50 (SF-268): 17.1 µM (inactive)
- GI50 (SF-295): 22.1 µM (inactive)
- GI50 (SF-539): 17.7 µM (inactive)
- GI50 (SK-MEL-28): 27.8 µM (inactive)
- GI50 (SK-MEL-2): 17.7 µM (inactive)
- GI50 (SK-MEL-5): 16.4 µM (inactive)
- GI50 (SK-OV-3): 23.2 µM (inactive)
- GI50 (SN12C): 18.1 µM (inactive)
- GI50 (SNB-19): 18.5 µM (inactive)
- GI50 (SNB-75): 15.5 µM (inactive)
- GI50 (SR): 8.99 µM (inactive)
- GI50 (SW-620): 32 µM (inactive)
- GI50 (T47D): 18.2 µM (inactive)
- GI50 (TK-10): 17.4 µM (inactive)
- GI50 (U-251): 16.9 µM (inactive)
- GI50 (UACC-257): 17.2 µM (inactive)
- GI50 (UACC-62): 16.9 µM (inactive)
- GI50 (UO-31): 17 µM (inactive)
